Data taken from patent US20220144823A1, “PYRAZOLOPYRIDINE DERIVATIVES AS INHIBITORS OF PASK” (Galapagos NV, priority 2019, published 2022).

Test system: diabetic non human primates (NHPs) under a high-calorie diet (HCD)
Test: Diabetic monkey model;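 also: male obese diabetic cynomolgus monkeys fed a high-fat, high-fructose diet, randomized into 4 groups, dosed with test compound for 8 weeks, then a 4-week washout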
Settings: for Oral glucose tolerance test (glucose AUC): fasted animals; for Hepatic echogenicity (H/R ratio): Hepatic (right lobe)/Renal cortex (right kidney) ratio, ultrasound
[1] = week 1, treatment, metformin 25 mg/kg b.i.d., Cpd 18 30 mg/kg q.d., p.o.
[2] = week 2, treatment, metformin 25 mg/kg b.i.d., Cpd 18 30 mg/kg q.d., p.o.
[3] = week 3, treatment, metformin 25 mg/kg b.i.d., Cpd 18 30 mg/kg q.d., p.o.
[4] = week 4, treatment, metformin 25 mg/kg b.i.d., Cpd 18 30 mg/kg q.d., p.o.
[5] = week 9, washout without treatment
[6] = week 10, washout without treatment
[7] = week 11, washout without treatment
[8] = week 12, washout without treatment

Method: The aim of this assay is to determine the effect of a test compound on lipid metabolism and glucose handling in diabetic non human primates (NHPs) under a high-calorie diet (HCD) consisting of high-fat and high-fructose.
Male obese diabetic cynomolgus monkeys were selected based on their body weights, glucose, insulin levels, and blood lipid parameters. The inclusion criteria were the following: age ≤22 years; fasted plasma glucose between 120 and 300 mg/dL; triglycerides >125 mg/dL, and insulin >75 mIU/mL.
The animals are maintained at 20-23° C. and 40-70% humidity on a 12 h light/dark cycle (7 AM-7 PM). Water is provided ad libitum and the animals are fed twice daily with the high-calorie diet (HCD) enriched with seasonal fruits or vegetables.
After the baseline period, animals were randomized into 4 groups according to body weight, as well as their blood glucose and lipid parameters.
The following parameters were measured once per week during the 8 weeks of treatment and also during the 4 weeks of washout: • body weight • food consumption • blood chemistry (fasted blood glucose, plasma triglycerides, plasma total cholesterol, low density lipoproteins (LDL), and high density lipoproteins (HDL))
Oral glucose tolerance was measured in fasted animals before treatment initiation (baseline), at the end of the treatment period (week 8), and after 4 weeks of washout (week 12).

## Cc1nn(C(C)C)c(C)c1-c1cnn2ccc(-c3cc(C(=O)O)co3)cc12 [Cpd 18, 5-[3-(1-isopropyl-3,5-dimethyl-pyrazol-4-yl)pyrazolo[1,5-a]pyridin-5-yl]furan-3-carboxylic acid]
Group 2, week 1, treatment
  HDL change (% change from baseline): 14.1%
  LDL change (% change from baseline): 52.8%
  Total cholesterol change (% change from baseline): 48.2 % change from baseline
  Triglyceride change (% change from baseline): −33.3 % change from baseline
Group 2, week 2, treatment
  HDL change (% change from baseline): 8.4%
  LDL change (% change from baseline): 38.3%
  Total cholesterol change (% change from baseline): 33.8 % change from baseline
  Triglyceride change (% change from baseline): −31.2 % change from baseline
Group 2, week 3, treatment
  HDL change (% change from baseline): 6.2%
  LDL change (% change from baseline): 16.6%
  Total cholesterol change (% change from baseline): 18.6 % change from baseline
  Triglyceride change (% change from baseline): −36.7 % change from baseline
Group 2, week 4, treatment
  HDL change (% change from baseline): −4.3%
  LDL change (% change from baseline): 31.0%
  Total cholesterol change (% change from baseline): 28.0 % change from baseline
  Triglyceride change (% change from baseline): −44.2 % change from baseline
Group 2, week 5, treatment
  HDL change (% change from baseline): 4.2%
  LDL change (% change from baseline): 5.1%
  Total cholesterol change (% change from baseline): 3.2 % change from baseline
  Triglyceride change (% change from baseline): −62.6 % change from baseline
Group 2, week 6, treatment
  HDL change (% change from baseline): 11.7%
  LDL change (% change from baseline): −10.5%
  Total cholesterol change (% change from baseline): −6.7 % change from baseline
  Triglyceride change (% change from baseline): −59.6 % change from baseline
Group 2, week 7, treatment
  HDL change (% change from baseline): 13.0%
  LDL change (% change from baseline): −17.2%
  Total cholesterol change (% change from baseline): −12.0 % change from baseline
  Triglyceride change (% change from baseline): −55.9 % change from baseline
Group 2, week 8, treatment
  HDL change (% change from baseline): 12.4%
  LDL change (% change from baseline): −10.5%
  Total cholesterol change (% change from baseline): −5.1 % change from baseline
  Triglyceride change (% change from baseline): −39.3 % change from baseline
Group 2, week 9, washout
  HDL change (% change from baseline): 13.5%
  LDL change (% change from baseline): −1.6%
  Total cholesterol change (% change from baseline): 5.8 % change from baseline
  Triglyceride change (% change from baseline): −33.4 % change from baseline
Group 2, week 10, washout
  HDL change (% change from baseline): 22.7%
  LDL change (% change from baseline): 38.6%
  Total cholesterol change (% change from baseline): 42.4 % change from baseline
  Triglyceride change (% change from baseline): 9.8 % change from baseline
Group 2, week 11, washout
  HDL change (% change from baseline): 21.2%
  LDL change (% change from baseline): 81.5%
  Total cholesterol change (% change from baseline): 83.8 % change from baseline
  Triglyceride change (% change from baseline): 49.7 % change from baseline
Group 2, week 12, washout
  HDL change (% change from baseline): 24.9%
  LDL change (% change from baseline): 118.6%
  Total cholesterol change (% change from baseline): 115.8 % change from baseline
  Triglyceride change (% change from baseline): 32.2 % change from baseline
Group 3, week 1, treatment
  HDL change (% change from baseline): 18.6%
  LDL change (% change from baseline): 60.5%
  Total cholesterol change (% change from baseline): 46.1 % change from baseline
  Triglyceride change (% change from baseline): −20.2 % change from baseline
Group 3, week 2, treatment
  HDL change (% change from baseline): 3.7%
  LDL change (% change from baseline): 58.3%
  Total cholesterol change (% change from baseline): 41.5 % change from baseline
  Triglyceride change (% change from baseline): −56.1 % change from baseline
Group 3, week 3, treatment
  HDL change (% change from baseline): 7.7%
  LDL change (% change from baseline): 35.1%
  Total cholesterol change (% change from baseline): 22.3 % change from baseline
  Triglyceride change (% change from baseline): −41.6 % change from baseline
Group 3, week 4, treatment
  HDL change (% change from baseline): −12.0%
  LDL change (% change from baseline): −28.7%
  Total cholesterol change (% change from baseline): −22.3 % change from baseline
  Triglyceride change (% change from baseline): −44.5 % change from baseline
Group 3, week 5, treatment
  HDL change (% change from baseline): 1.0%
  LDL change (% change from baseline): −27.5%
  Total cholesterol change (% change from baseline): −21.0 % change from baseline
  Triglyceride change (% change from baseline): −44.4 % change from baseline
Group 3, week 6, treatment
  HDL change (% change from baseline): 9.5%
  LDL change (% change from baseline): −33.2%
  Total cholesterol change (% change from baseline): −26.5 % change from baseline
  Triglyceride change (% change from baseline): −46.2 % change from baseline
Group 3, week 7, treatment
  HDL change (% change from baseline): 8.3%
  LDL change (% change from baseline): −39.4%
  Total cholesterol change (% change from baseline): −30.5 % change from baseline
  Triglyceride change (% change from baseline): −35.0 % change from baseline
Group 3, week 8, treatment
  HDL change (% change from baseline): −0.9%
  LDL change (% change from baseline): −27.9%
  Total cholesterol change (% change from baseline): −20.4 % change from baseline
  Triglyceride change (% change from baseline): −37.4 % change from baseline
Group 3, week 9, washout
  HDL change (% change from baseline): 1.5%
  LDL change (% change from baseline): −41.8%
  Total cholesterol change (% change from baseline): −31.5 % change from baseline
  Triglyceride change (% change from baseline): −49.3 % change from baseline
Group 3, week 10, washout
  HDL change (% change from baseline): 8.0%
  LDL change (% change from baseline): −13.5%
  Total cholesterol change (% change from baseline): −8.2 % change from baseline
  Triglyceride change (% change from baseline): −45.9 % change from baseline
Group 3, week 11, washout
  HDL change (% change from baseline): 21.9%
  LDL change (% change from baseline): 10.2%
  Total cholesterol change (% change from baseline): 15.5 % change from baseline
  Triglyceride change (% change from baseline): −19.9 % change from baseline
Group 3, week 12, washout
  HDL change (% change from baseline): 23.9%
  LDL change (% change from baseline): 46.2%
  Total cholesterol change (% change from baseline): 48.7 % change from baseline
  Triglyceride change (% change from baseline): 18.8 % change from baseline
Group 4, week 1, treatment
  HDL change (% change from baseline): 2.1%
  LDL change (% change from baseline): 67.1%
  Total cholesterol change (% change from baseline): 50.9 % change from baseline
  Triglyceride change (% change from baseline): −31.7 % change from baseline
Group 4, week 2, treatment
  HDL change (% change from baseline): −13.1%
  LDL change (% change from baseline): 46.7%
  Total cholesterol change (% change from baseline): 30.3 % change from baseline
  Triglyceride change (% change from baseline): −30.0 % change from baseline
Group 4, week 3, treatment
  HDL change (% change from baseline): −14.9%
  LDL change (% change from baseline): 33.6%
  Total cholesterol change (% change from baseline): 20.9 % change from baseline
  Triglyceride change (% change from baseline): −28.2 % change from baseline
Group 4, week 4, treatment
  HDL change (% change from baseline): −16.0%
  LDL change (% change from baseline): −21.9%
  Total cholesterol change (% change from baseline): −22.6 % change from baseline
  Triglyceride change (% change from baseline): −48.3 % change from baseline
Group 4, week 5, treatment
  HDL change (% change from baseline): −6.9%
  LDL change (% change from baseline): 0.0%
  Total cholesterol change (% change from baseline): −7.8 % change from baseline
  Triglyceride change (% change from baseline): −52.3 % change from baseline
Group 4, week 6, treatment
  HDL change (% change from baseline): 0.3%
  LDL change (% change from baseline): 2.1%
  Total cholesterol change (% change from baseline): −2.6 % change from baseline
  Triglyceride change (% change from baseline): −50.8 % change from baseline
Group 4, week 7, treatment
  HDL change (% change from baseline): 0.9%
  LDL change (% change from baseline): −38.5%
  Total cholesterol change (% change from baseline): −32.9 % change from baseline
  Triglyceride change (% change from baseline): −63.2 % change from baseline
Group 4, week 8, treatment
  HDL change (% change from baseline): 8.7%
  LDL change (% change from baseline): −32.5%
  Total cholesterol change (% change from baseline): −26.1 % change from baseline
  Triglyceride change (% change from baseline): −56.1 % change from baseline
Group 4, week 9, washout
  HDL change (% change from baseline): 18.9%
  LDL change (% change from baseline): −20.0%
  Total cholesterol change (% change from baseline): −15.5 % change from baseline
  Triglyceride change (% change from baseline): −60.2 % change from baseline
Group 4, week 10, washout
  HDL change (% change from baseline): 6.0%
  LDL change (% change from baseline): 29.3%
  Total cholesterol change (% change from baseline): 10.9 % change from baseline
  Triglyceride change (% change from baseline): −58.1 % change from baseline
Group 4, week 11, washout
  HDL change (% change from baseline): 11.0%
  LDL change (% change from baseline): 45.1%
  Total cholesterol change (% change from baseline): 28.5 % change from baseline
  Triglyceride change (% change from baseline): −41.4 % change from baseline
Group 4, week 12, washout
  HDL change (% change from baseline): 12.0%
  LDL change (% change from baseline): 87.5%
  Total cholesterol change (% change from baseline): 58.3 % change from baseline
  Triglyceride change (% change from baseline): −65.4 % change from baseline
Week 0, baseline (before treatment initiation)
  Oral glucose tolerance test (glucose AUC): 2371 mmol·min/L
[1]
  Bodyweight change (% change from baseline): 0.4%
  HbA1c change (% change from baseline): −6.3%
[2]
  Bodyweight change (% change from baseline): −1.9%
  HbA1c change (% change from baseline): −9.4%
[3]
  Bodyweight change (% change from baseline): −3.8%
  HbA1c change (% change from baseline): −17.2%
[4]
  Bodyweight change (% change from baseline): −5.6%
  HbA1c change (% change from baseline): −24.1%
Week 8, end of treatment period
  Oral glucose tolerance test (glucose AUC): 2307 mmol·min/L
[5]
  Bodyweight change (% change from baseline): −13.6%
  HbA1c change (% change from baseline): −30.7%
Week 9, washout
  Hepatic echogenicity (H/R ratio): 1.03
[6]
  Bodyweight change (% change from baseline): −14.5%
  HbA1c change (% change from baseline): −25.6%
[7]
  Bodyweight change (% change from baseline): −14.3%
  HbA1c change (% change from baseline): −21.3%
Week 12, after 4 weeks of washout
  Oral glucose tolerance test (glucose AUC): 2291 mmol·min/L
[8]
  Bodyweight change (% change from baseline): −14.8%
  HbA1c change (% change from baseline): −27.9%
Week −3, baseline
  Hepatic echogenicity (H/R ratio): 1.13
